Experimental data as given in patent US20260217697A1, “COMPOUNDS COMPRISING HETEROARYL RINGS AND COMPOSITIONS AND METHODS THEREOF” (lonGen Therapeutics Co., Ltd., priority 2022, published 2026).

Molecular target: T1, hTRPV3 (Homo sapiens, UniProt Q8NET8)
T1 construct: The commercially available plasmid with the full-length cDNA of hTRPV3 (791 aa) (NM_001258205.2); host or cells: HEK293T
T1 sequence (Q8NET8 1-791 isoform Q8NET8-2): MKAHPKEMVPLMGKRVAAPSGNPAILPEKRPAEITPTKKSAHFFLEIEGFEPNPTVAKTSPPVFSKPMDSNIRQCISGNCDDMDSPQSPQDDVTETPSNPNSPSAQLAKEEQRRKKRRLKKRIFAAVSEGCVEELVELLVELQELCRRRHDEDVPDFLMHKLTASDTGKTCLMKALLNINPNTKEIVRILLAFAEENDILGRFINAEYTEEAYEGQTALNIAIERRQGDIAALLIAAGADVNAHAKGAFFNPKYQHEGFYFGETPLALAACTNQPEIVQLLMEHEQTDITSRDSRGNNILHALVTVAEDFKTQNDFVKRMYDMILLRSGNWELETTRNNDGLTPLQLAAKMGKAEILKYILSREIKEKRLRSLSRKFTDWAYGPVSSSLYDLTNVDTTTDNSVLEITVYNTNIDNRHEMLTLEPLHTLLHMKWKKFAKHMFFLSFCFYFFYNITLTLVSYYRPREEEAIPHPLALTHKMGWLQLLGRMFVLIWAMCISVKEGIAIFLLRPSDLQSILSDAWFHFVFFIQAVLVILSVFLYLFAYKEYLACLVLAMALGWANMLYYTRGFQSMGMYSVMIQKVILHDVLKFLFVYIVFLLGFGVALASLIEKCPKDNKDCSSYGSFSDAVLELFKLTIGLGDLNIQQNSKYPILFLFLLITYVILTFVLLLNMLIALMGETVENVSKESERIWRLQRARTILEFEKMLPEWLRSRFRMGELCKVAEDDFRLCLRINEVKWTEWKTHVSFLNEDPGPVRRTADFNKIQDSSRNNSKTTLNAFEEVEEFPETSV
Experiment: Whole-cell patch-clamp recording of hTRPV3 current in transfected HEK293T cells (2-APB induced)
Type: cell-based
Details: current induced by 300 μM 2-APB, compounds tested up to 10 μM, room temperature
Method: Various technologies can be utilized to assess TRPV3 activation in accordance with the present disclosure. For example, in some embodiments, compounds are assessed in in vitro patch clamp experiments. Certain useful procedures are described herein as examples.
In some embodiments, whole-cell patch-clamp recordings were used to detect the current through hTRPV3 channels in the HEK293T cell line transfected with hTRPV3 cDNA and evaluate the exact blocking effect of compounds on hTRPV3. In some embodiments, a perfusion system was adopted to control the extracellular solution, including the addition of the agonist and different antagonists.
HEK293T cells were cultured in a Dulbecco's modified Eagle's medium containing 10% fetal bovine serum (Thermo Scientific) and 1% penicillin/streptomycin (Thermo Scientific) at 37° C. with 5% CO2. The commercially available plasmid with the full-length cDNA of hTRPV3 (791 aa) (NM_001258205.2) was purchased from OriGene Technologies. The transfection of hTRPV3 plasmids was conducted using Lipofectamine™ 3000 following the manufacturer's instructions (Invitrogen).
Whole-cell patch-clamp experiments were performed 18 h post-transfection, using a MultiClamp 700B amplifier driven by pClamp 11 software (Molecular Devices). In order to achieve good single-cell physical separation, HEK293T cells with hTRPV3 expression were digested and then re-plated at low density on glass coverslips. Electrodes were pulled from borosilicate glass with a P-97 micropipette puller (Sutter Instruments) and those with resistances of 3-5 MΩ are used for experiments. In some embodiments, an Ag—AgCl wire was used as a reference electrode and signals are filtered using a 2.9 kHz low-pass Bessel filter. Membrane potential was held at 0 mV. For recording of agonist-induced activation and inhibition by different test compounds, currents were elicited by a protocol consisting of a 400-ms step to +80 mV, followed by a 400-ms step to −80 mV at 2-s intervals. both pipette and bath solutions contained 130 mM NaCl, 0.3 mM EDTA, and 3 mM HEPES (buffered to pH 7.4 with NaOH). All recordings were made at room temperature.
All patch-clamp recordings were analyzed using the Clampfit software and GraphPad Prism 6.0 software. Specifically, data are analyzed by calculating the degree of current amplitude after the test compound addition compared with the unblocked agonist-induced current amplitude. The resulting blocking percentage at each concentration was used to make a concentration-response analysis and fitted to the Hill equation: blocking percentage=minimum blocking percentage+ (maximum blocking percentage-minimum blocking percentage)/(1+10^(Hill slope* […])). The minimum blocking percentage is 0% and maximum blocking percentage is 100%, while the Hill slope and the IC50 were determined as the curve fitting routine. Compounds of interest were tested against hTRPV3 at concentrations up to 10 μM, and certain data was used to estimate IC50 as described herein.

Structure (SMILES) | IC50 [µM]
COc1ncnc(OC)c1C(=O)Nc1nc2c(s1)C1(CCN(C(=O)OC(C)(C)C)C1)Oc1cc(C(F)(F)F)ccc1-2 (centres unmarked) [compound 106, tert-butyl 2-(4,6-dimethoxypyrimidine-5-carboxamido)-7-(trifluoromethyl)spiro[chromeno[4,3-d]thiazole-4,3′-pyrrolidine]-1′-carboxylate] | 0.1 to 1
COC(=O)N1CC2(C1)Oc1cc(C(F)(F)F)ccc1-c1nc(NC(=O)c3c(OC)ncnc3OC)sc12 [compound 92, methyl 2′-(4,6-dimethoxypyrimidine-5-carboxamido)-7′-(trifluoromethyl)spiro[azetidine-3,4′-chromeno[4,3-d]thiazole]-1-carboxylate] | 0.1 to 1
CCC1(CC)Oc2cc(C(F)(F)F)ccc2-c2nc(NC(=O)c3c(NC)ncnc3OC)sc21 [compound 120, N-(4,4-diethyl-7-(trifluoromethyl)-4H-chromeno[4,3-d]thiazol-2-yl)-4-methoxy-6-(methylamino)pyrimidine-5-carboxamide] | 1 to 10
CCC1(CC)Oc2cc(C(F)(F)F)ccc2-c2nc(NC(=O)c3c(OC)ncnc3OCOC)sc21 [compound 122, N-(4,4-diethyl-7-(trifluoromethyl)-4H-chromeno[4,3-d]thiazol-2-yl)-4-methoxy-6-(methoxymethoxy)pyrimidine-5-carboxamide] | ≥ 10
COc1ncnc(OC)c1C(=O)Nc1nc2c(s1)C(CF)(CF)Oc1cc(C(F)(F)F)ccc1-2 [compound 100] | < 0.1
CCOC(=O)CCCC1(C)Oc2cc(C(F)(F)F)ccc2-c2nc(NC(=O)c3c(OC)ncnc3OC)sc21 (centres unmarked) [compound 104, ethyl 4-(2-(4,6-dimethoxypyrimidine-5-carboxamido)-4-methyl-7-(trifluoromethyl)-4H-chromeno[4,3-d]thiazol-4-yl)butanoate] | 0.1 to 1
COc1ncnc(OC)c1C(=O)Nc1nc2c(s1)C1(CCC(F)(F)CC1)Oc1cc(C(F)(F)F)ccc1-2 [compound 40, N-(4′,4′-difluoro-7-(trifluoromethyl)spiro[chromeno[4,3-d]thiazole-4,1′-cyclohexan]-2-yl)-4,6-dimethoxypyrimidine-5-carboxamide] | 0.1 to 1
COc1ncnc(OC)c1C(=O)Nc1nc2c(s1)C1(CCC(OCc3ccccc3)CC1)Oc1cc(C(F)(F)F)ccc1-2 (centres unmarked) [compound 30, N-(4′-(benzyloxy)-7-(trifluoromethyl)spiro[chromeno[4,3-d]thiazole-4,1′-cyclohexan]-2-yl)-4,6-dimethoxypyrimidine-5-carboxamide] | 0.1 to 1
CCC1(CC)Oc2cc(C(F)(F)F)ccc2-c2nc(NC(=O)c3c(OC)ncnc3OC)sc21 [compound 24, N-(4,4-diethyl-7-(trifluoromethyl)-4H-chromeno[4,3-d]thiazol-2-yl)-4,6-dimethoxypyrimidine-5-carboxamide] | < 0.1
CCC1(CC)Oc2cc(C(F)(F)F)ccc2-c2nc(NC(=O)c3c(O)ncnc3OC)sc21 [compound 121, N-(4,4-diethyl-7-(trifluoromethyl)-4H-chromeno[4,3-d]thiazol-2-yl)-4-hydroxy-6-methoxypyrimidine-5-carboxamide] | ≥ 10
CCC1(CC)Oc2cc(C(C)(C)O)ccc2-c2nc(NC(=O)c3c(OC)ncnc3OC)sc21 [compound 61, N-(4,4-diethyl-7-(2-hydroxypropan-2-yl)-4H-chromeno[4,3-d]thiazol-2-yl)-4,6-dimethoxypyrimidine-5-carboxamide] | 1 to 10
COc1ncnc(OC)c1C(=O)Nc1nc2c(s1)C1(CN(C(C)C)C1)Oc1cc(C(F)(F)F)ccc1-2 [compound 136, N-(1-isopropyl-7′-(trifluoromethyl)spiro[azetidine-3,4′-chromeno[4,3-d]thiazol]-2′-yl)-4,6-dimethoxypyrimidine-5-carboxamide] | < 0.1
COc1ncnc(OC)c1C(=O)Nc1nc2c(s1)COc1cc(Br)ccc1-2 [compound 6, N-(7-bromo-4H-chromeno[4,3-d]thiazol-2-yl)-4,6-dimethoxypyrimidine-5-carboxamide] | ≥ 10
COCC1(COC)Oc2cc(C(F)(F)F)ccc2-c2nc(NC(=O)c3c(OC)ncnc3OC)sc21 [compound 66, N-(4,4-bis(methoxymethyl)-7-(trifluoromethyl)-4H-chromeno[4,3-d]thiazol-2-yl)-4,6-dimethoxypyrimidine-5-carboxamide] | 0.1 to 1
COc1ncnc(OC)c1C(=O)Nc1nc2c(s1)C1(COC1)Oc1cc(C(C)(C)C#N)ccc1-2 [compound 140, N-(7-(2-cyanopropan-2-yl)spiro[chromeno[4,3-d]thiazole-4,3′-oxetan]-2-yl)-4,6-dimethoxypyrimidine-5-carboxamide] | 1 to 10
COc1ncnc(OC)c1C(=O)Nc1nc2c(s1)C1(CN(C3(OC)CC3)C1)Oc1cc(C(F)(F)F)ccc1-2 [compound 153, 4,6-dimethoxy-N-(1-(1-methoxycyclopropyl)-7′-(trifluoromethyl)spiro[azetidine-3,4′-chromeno[4,3-d]thiazol]-2′-yl)pyrimidine-5-carboxamide] | < 0.1
COc1ncnc(OC)c1C(=O)Nc1nc2c(s1)C1(COC1)Oc1cc(C(C)C)ccc1-2 [compound 135, N-(7-isopropylspiro[chromeno[4,3-d]thiazole-4,3′-oxetan]-2-yl)-4,6-dimethoxypyrimidine-5-carboxamide] | < 0.1
COc1ncnc(OC)c1C(=O)Nc1nc2c(s1)C1(CCC(C(=O)NC(C)C)CC1)Oc1cc(C(F)(F)F)ccc1-2 (centres unmarked) [compound 125, 2-(4,6-dimethoxypyrimidine-5-carboxamido)-N-isopropyl-7-(trifluoromethyl)spiro[chromeno[4,3-d]thiazole-4,1′-cyclohexane]-4′-carboxamide] | 1 to 10
COc1ncnc(OC)c1C(=O)Nc1nc2c(s1)CCc1ccccc1-2 [compound 2, N-(4,5-dihydronaphtho[1,2-d]thiazol-2-yl)-4,6-dimethoxypyrimidine-5-carboxamide] | ≥ 10
COc1ncnc(OC)c1C(=O)Nc1nc2c(s1)C1(CN(C3COC3)C1)Oc1cc(C(F)(F)F)ccc1-2 [compound 160, 4,6-dimethoxy-N-(1-(oxetan-3-yl)-7′-(trifluoromethyl)spiro[azetidine-3,4′-chromeno[4,3-d]thiazol]-2′-yl)pyrimidine-5-carboxamide] | 0.1 to 1
CCOC(=O)[C@H]1CC[C@]2(CC1)Oc1cc(Br)ccc1-c1nc(NC(=O)c3c(OC)ncnc3OC)sc12 [compound 128] | 0.1 to 1
CCC1(CC)Oc2cc(C(F)(F)F)ccc2-c2nc(NC(=O)c3c(OC)nc(OC)nc3OC)sc21 [compound 158, N-(4,4-diethyl-7-(trifluoromethyl)-4H-chromeno[4,3-d]thiazol-2-yl)-2,4,6-trimethoxypyrimidine-5-carboxamide] | ≥ 10
CCC1CCCC2(C1)Oc1cc(C(F)(F)F)ccc1-c1nc(NC(=O)c3c(OC)ncnc3OC)sc12 (centres unmarked) [compound 38, N-(3′-ethyl-7-(trifluoromethyl)spiro[chromeno[4,3-d]thiazole-4,1′-cyclohexan]-2-yl)-4,6-dimethoxypyrimidine-5-carboxamide] | 0.1 to 1
